Data published in patent publication US12564641B2 (EISAI R&D MANAGEMENT CO., LTD., priority 2019, dated 2026).
Like-named read-outs stand apart in the source and are kept apart here.

Experiments:
A431 cells = test: In vitro cytotoxicity analysis (Crystal Violet), A431; conditions: Homo sapiens, A-431, read-out: Cell based Cytotoxicity assay, EC50 (nM) A431-6 hr; treated with ADC for 6 hours then washed off
Method: (§1) Plates were read at 570 nm. Data was analyzed using GraphPad Prism 6.
All ADCs were purified and characterized using SEC-HPLC for aggregation analysis, HIC-HPLC for DAR analysis, and cell-based assay with A431-A3 (MSLN^hi), A431 (MSLN^lo), and OVCAR3 (MSLN^hi) cell lines.

[1] = tested on: A3 (A431 stably transfected with human mesothelin) cells; test: In vitro cytotoxicity analysis (Crystal Violet), A3; format: cell-based
Method: as §1
Fifteen anti-mesothelin antibodies were sub-cloned, scale-up expressed and purified, and conjugated using maleimide-VCP-eribulin as payload at the Cys80 position. All ADCs were purified and characterized using SEC-HPLC for aggregation analysis, HIC-HPLC for DAR analysis, and cell-based assay with A431-A3 (MSLN^hi), A431 (MSLN^lo), and OVCAR3 (MSLN^hi) cell lines. […] Based on the characterization data below, six antibodies (bolded) were selected for humanization.

H226 cells = test: In vitro cytotoxicity analysis (Crystal Violet), H226; format: cell-based; conditions: Homo sapiens
Method: as §1

[2] = tested on: various cell lines (51 cell lines); test: In vitro potency (IC50, Crystal Violet) in cell lines with varying mesothelin expression; format: cell-based
Method: Cytotoxicitly Cells were sub-cultured and seeded at 5,000 cells/well in complete growth medium in 96-well tissue culture plates, and incubated at 37° C., 5% CO2 overnight (16 hours). Test reagents were serially diluted 1:3 in 2 mL deep-well dilution plates, starting at 200 nM (10 dilutions total). Diluted samples (100 μL) were added to the cell plates (starting concentration of test samples at 100 nM). Plates were incubated at 37° C., 5% CO2 for an additional 5 days. Medium was then discarded, and plates were washed once with 200 μL DPBS, stained with 50 μL of 0.2% Crystal Violet solution at room temperature for 15 min, and then washed extensively with tap water. Plates were air-dried, and Crystal Violet was dissolved with 200 μL of 1% SDS solution. Plates were read at 570 nm. Data was analyzed for IC50 determination using GraphPad Prism 6. Correlation analysis was performed in GraphPad Prism using a non-parametric Spearman analysis.

human NSCLC PDX LC-F-25 = test: Human NSCLC PDX model LC-F-25; format: in vivo, mouse
Method: Statistical analysis: Statistical analysis was performed for each measurement by a Mann-Whitney non-parametric comparison test. Each treated group was compared with the control group.

MSLN-positive cell lines = test: In vitro cytotoxicity (IC50, Crystal Violet) on MSLN-positive cell lines (Example 11)
Method: Cytotoxicity: Cells were sub-cultured and seeded at 5,000 cells/well in complete growth medium in 96-well tissue culture plates, and incubated at 37° C., 5% CO2 overnight (16 hours). Test reagents were serially diluted 1:3 in 2 mL deep-well dilution plates, starting at 200 nM (10 dilutions total). Diluted samples (100 μL) were added to the cell plates (starting concentration of test samples at 100 nM). Plates were incubated at 37° C. 5% CO2 for an additional 5 days. Medium was then discarded, and plates were washed once with 200 μL DPBS, stained with 50 μL of 0.2% Crystal Violet solution at room temperature for 15 min, and then washed extensively with tap water. Plates were air-dried, and Crystal Violet was dissolved with 200 μL of 1% SDS solution. Plates were read at 570 nm. Data was analyzed for IC50 determination using GraphPad Prism 6.

[3] = eribulin single dose of 0.1 mg/kg i.v.
[4] = eribulin single dose of 3.2 mg/kg i.v.

With `C=C1C[C@@H]2CC[C@@]34C[C@H]5O[C@H]6[C@@H](O3)[C@H]3O[C@H](CC[C@@H]3O[C@H]6[C@H]5O4)CC(=O)C[C@@H]3[C@@H](OC)[C@@H](C[C@H](O)CN)O[C@H]3C[C@H]3O[C@@H](CC[C@@H]1O2)C[C@@H](C)C3=C` [Eribulin, eribulin, reference compound] the EC50 (A431 cells) was 2.86 nM, the EC50 ([1]; A-431, 120 h, Table 18, 5 days, read-out: Cell-Based Cytotoxicity Assay, EC50 (nM) A3) was 1.03 nM and the EC50 ([1]; A-431, Table 19, payloads, read-out: Cell-Based Cytotoxicity Assay EC50 (nM) A3) was 1.03 nM. The EC50 ([1]; A-431, read-out: Cell based Cytotoxicity assay, EC50 (nM) A3-6 hr, treated with ADC for 6 hours then washed off) was 4.08 nM, the EC50 ([1]; A-431, read-out: Cell based Cytotoxicity assay, EC50 (nM) A3-48 hr, treated for 48 hours) was 1.09 nM and the EC50 (H226 cells; NCI-H226, 120 h, Table 18, 5 days, read-out: Cell-Based Cytotoxicity Assay, EC50 (nM) H226) was 5.3 nM. The EC50 (H226 cells; NCI-H226, Table 19, payloads, read-out: Cell-Based Cytotoxicity Assay EC50 (nM) H226) was 5.3 nM, the IC50 ([2]; A431-K5 cells (MSLN MFI 1430.3)) was 1.5 nM and the IC50 ([2]; COV362, COV362 cells (MSLN MFI 113.5)) was 2.78 nM. The IC50 ([2]; HAC-2 cells (MSLN MFI 172.3)) was 26.6 nM, the IC50 ([2]; HEC-251, HEC-251 cells (MSLN MFI 53.3)) was 0.5 nM and the IC50 ([2]; HK-1, HK1 cells (MSLN MFI 39.2)) was 0.89 nM. For the same compound, the IC50 ([2]; HNE1, HNE-1 cells (MSLN MFI 110.8)) was 0.87 nM, the IC50 ([2]; HNE-1-T1 cells (MSLN MFI 79.3)) was 1.03 nM and the IC50 ([2]; Homo sapiens, A549, A549 cells (MSLN MFI 14.2)) was 2.72 nM. It also gave an IC50 ([2]; Homo sapiens, A-431, A431 cells (MSLN MFI 5.6)) of 0.55 nM, an IC50 ([2]; Homo sapiens, ASPC1, AsPC1 cells (MSLN MFI 33.47)) of 1.62 nM and an IC50 ([2]; Homo sapiens, BXPC-3, BxPC3 cells (MSLN MFI 15.59)) of 0.66 nM. For the same compound, the IC50 ([2]; Homo sapiens, CNE-2, CNE2 cells (MSLN MFI 147.7)) was 0.49 nM, the IC50 ([2]; Homo sapiens, Caov-3, CaOV-3 cells (MSLN MFI 137.6)) was 0.44 nM and the IC50 ([2]; Homo sapiens, Capan-2, Capan-2 cells (MSLN MFI 36)) was 1.21 nM. The IC50 ([2]; Homo sapiens, EGI-1, EGI-1 cells (MSLN MFI 14.8)) was 1.48 nM, the IC50 ([2]; Homo sapiens, HCC1806, HCC1806 cells (MSLN MFI 189.3)) was 0.37 nM and the IC50 ([2]; Homo sapiens, HEC-1-A, HEC-1-A cells (MSLN MFI 16.5)) was 0.68 nM. It also gave an IC50 ([2]; Homo sapiens, HEC-1B, HEC-1-B cells (MSLN MFI 16.9)) of 0.54 nM, an IC50 ([2]; Homo sapiens, HONE1, HONE1 cells (MSLN MFI 108.6)) of 0.89 nM and an IC50 ([2]; Homo sapiens, JIMT-1, JIMT-1 cells (MSLN MFI 36.4)) of 0.39 nM. It also gave an IC50 ([2]; Homo sapiens, Lu-65, Lu65 cells (MSLN MFI 13.13)) of 0.56 nM, an IC50 ([2]; Homo sapiens, MFE-280, MFE-280 cells (MSLN MFI 45.1)) of 3.24 nM and an IC50 ([2]; Homo sapiens, MKN-1, MKN1 cells (MSLN MFI 22.06)) of 0.96 nM. It also gave an IC50 ([2]; Homo sapiens, MKN-7, MKN7 cells (MSLN MFI 18.48)) of 0.58 nM, an IC50 ([2]; Homo sapiens, MKN-45, MKN45 cells (MSLN MFI 57.94)) of 3.65 nM and an IC50 ([2]; Homo sapiens, MKN-74, MKN74 cells (MSLN MFI 7.73)) of 0.78 nM. The IC50 ([2]; Homo sapiens, NCI-H23, NCI-H23 cells (MSLN MFI 4.42)) was 0.6 nM, the IC50 ([2]; Homo sapiens, NCI-H226, H226 cells (MSLN MFI 725.3)) was 0.66 nM and the IC50 ([2]; Homo sapiens, NCI-H292, NCI-H292 cells (MSLN MFI 108.6)) was 0.58 nM. For the same compound, the IC50 ([2]; Homo sapiens, NCI-H460, NCI-H460 cells (MSLN MFI 8.56)) was 35.3 nM, the IC50 ([2]; Homo sapiens, NCI-H1355, NCI-H1355 cells (MSLN MFI 11.5)) was 0.67 nM and the IC50 ([2]; Homo sapiens, NCI-H1650, NCI-H1650/MSLN cells (MSLN MFI 1865.5)) was 0.84 nM. The IC50 ([2]; Homo sapiens, NCI-H1650, NCI-H1650 cells (MSLN MFI 31.5)) was 0.61 nM, the IC50 ([2]; Homo sapiens, NCI-H2126, NCI-H2126 cells (MSLN MFI 73.6)) was 0.53 nM and the IC50 ([2]; Homo sapiens, NCI-N87, NCI-N87 cells (MSLN MFI 125.8)) was 0.11 nM. For the same compound, the IC50 ([2]; Homo sapiens, OVCAR-3, OVCAR3 A1 cells (MSLN MFI 220)) was 0.15 nM, the IC50 ([2]; Homo sapiens, PC-9, PC9 cells (MSLN MFI 11.24)) was 0.56 nM and the IC50 ([2]; Homo sapiens, SUNE1, SUNE1 cells (MSLN MFI 212.4)) was 0.56 nM. For the same compound, the IC50 ([2]; Homo sapiens, T47D, T-47D cells (MSLN MFI 4.4)) was 0.68 nM, the IC50 ([2]; Kuramochi cells (MSLN MFI 211.2)) was 0.89 nM and the IC50 ([2]; MOR/CPR cells (MSLN MFI 120.79)) was 3.69 nM. The IC50 ([2]; NCI-H322, NCI-H322 cells (MSLN MFI 83.9)) was 0.46 nM, the IC50 ([2]; NCI-H1355-Sorted cells (MSLN MFI 32.7)) was 0.7 nM and the IC50 ([2]; NCI-H1568, NCI-H1568/MSLN cells (MSLN MFI 4474)) was 0.44 nM. It also gave an IC50 ([2]; NCI-H2110, NCI-H2110 cells (MSLN MFI 112.2)) of 0.32 nM, an IC50 ([2]; SNU-216, SNU216 cells (MSLN MFI 94.91)) of 1.78 nM and an IC50 ([2]; SNU-245 cells (MSLN MFI 23.9)) of 78.2 nM. It also gave an IC50 ([2]; SNU-478 cells (MSLN MFI 53.8)) of 1.58 nM, an IC50 ([2]; SNU-1196 cells (MSLN MFI 40.2)) of 1.14 nM and an IC50 ([2]; TFK1 cells (MSLN MFI 132.81)) of 1.27 nM. For the same compound, the tolerability (human NSCLC PDX LC-F-25; [3]) was “well tolerated”, the tumor growth inhibition (human NSCLC PDX LC-F-25; [3]) was “did not induce statistically significant tumor growth inhibition” and the tolerability / bodyweight (human NSCLC PDX LC-F-25; eribulin single dose of 3.2 mg/kg (mouse MTD) i.v., from 3 to 10 days after administration) was “slight and transient bodyweight loss”. The partial tumor regressions (human NSCLC PDX LC-F-25; [4]) was 6 out of 8, the tumor growth inhibition (human NSCLC PDX LC-F-25; [4]) was “statistically significant tumor growth inhibition” and the IC50 (MSLN-positive cell lines; Homo sapiens, NCI-H292, read-out: In vitro cell based potency, IC50) was 0.11 nM. The “% Max Killing” value (MSLN-positive cell lines; NCI-H292 cells (MSLN MFI 108.6)) was 85.37%, the IC50 (MSLN-positive cell lines; NCI-H1568, read-out: In vitro cell based potency, IC50) was 0.14 nM and the “% Max Killing” value (MSLN-positive cell lines; NCI-H1568/MSLN cells (MSLN MFI 4474.00)) was 74.39%. For the same compound, the “% Max Killing” value (MSLN-positive cell lines; OVCAR3-A1 cells (MSLN MFI 220.0)) was 99.31% and the IC50 (MSLN-positive cell lines; read-out: In vitro cell based potency, IC50) was 0.02 nM.
